Laboratory results from patent publication US10351550B2, “Substituted quinazoline compounds and methods of use thereof” (Araxes Pharma LLC, priority 2015, dated 2019).
Marks after values point to notes of the source that are not given here.

Target: T1, KRAS G12C 1-169, his-tagged protein, GDP-loaded (Homo sapiens, UniProt P01116, G12C)
T1 construct: KRAS G12C 1-169, his-tagged protein, GDP-loaded
Assay: Biochemical assay: covalent binding (% modification) to KRAS G12C by mass spectrometry
Description: Test compounds were prepared as 10 mM stock solutions in DMSO (Fisher cat# BP-231-100). KRAS G12C 1-169, his-tagged protein, GDP-loaded was diluted to 2 μm in buffer (20 mM Hepes, 150 mM NaCl, 1 mM MgCl2). Compounds were tested for activity as follows:
Compounds were diluted to 50× final test concentration in DMSO in 96-well storage plates. Compound stock solutions were vortexed before use and observed carefully for any sign of precipitation. Dilutions were as follow: • 1. For 100 μM final compound concentration, compounds were diluted to 5000 μM (5 μl 10 mM compound stock+5 μl DMSO and mixed well by pipetting. • 2. For 30 μM final compound concentration, compounds were diluted to 1500 μM (3 μl 10 mM compound stock+17 μl DMSO) and mixed well by pipetting. • 3. For 10 μM final compound concentration, compounds were diluted to 500 μM (2 μl 10 mM compound stock+38 μl DMSO) and mixed well by pipetting. 49 μl of the stock protein solution was added to each well of a 96-well PCR plate (Fisher cat#1423027). 1 μl of the diluted 50× compounds were added to appropriate wells in the PCR plate using 12-channel pipettor. Reactions were mixed carefully and thoroughly by pipetting up/down with a 200·1 multi-channel pipettor. […] 5·1 of 2% formic acid (Fisher cat# A117) in DI H2O was then added to each well followed by mixing with a pipette. The plate was then resealed with aluminum seal and stored on dry ice until analyzed as described below.
The above described assays were analyzed by mass spectrometry according to one of the following two procedures:
The MS instrument is set to positive polarity, 2 GHz resolution, and low mass (1700) mode and allowed to equilibrate for 30 minutes. The instrument is then calibrated, switched to acquisition mode and the appropriate method loaded.
After another 30 minute equilibration time, a blank batch (i.e., buffer) is run to ensure equipment is operating properly. The samples are thawed at 37° C. for 10 minutes, briefly centrifuged, and transfer to the bench top. Wells A1 and H12 are spiked with 1 uL 500 uM internal standard peptide, and the plates centrifuged at 2000×g for 5 minutes. The method is then run and masses of each individual well recorded.
The masses (for which integration data is desired) for each well are pasted into the platemap and exported from the analysis. Masses for the internal standards are exported as well. The data at 50 ppm is extracted for the +19 charge state, and identity of well A1 is assigned using the internal standard spike and integrated. Peak data is exported as a TOF list and the above steps are repeated individually, for the +20, 21, 22, 23, 24, and 25 charge states.
The masses and peak intensities of KRAS G12C protein species were measured using a Dionex RSLCnano system (Thermo Scientific) connected to a Q Exactive Plus mass spectrometer (Thermo Scientific).
[…] of sample was each loaded onto a Aeris™ 3.6 μm WIDEPORE C4 200 Å, LC Column 50×2.1 mm column maintained at 40° C. at a flow rate of 600 μl min^1 with 20% Solvent A (0.1% formic acid in H2O) and 80% Solvent B (0.1% formic acid in acetonitrile). The liquid chromatography conditions were 20% solvent B for 1 min, 20% to 60% solvent B for 1.5 min, 60% to 90% solvent for 0.5 min, 90% solvent B for 0.2 min, 90% to 20% solvent B for 0.2 min, and then equilibrated for 1.6 min before the following sample injection. The flow rate was maintained at 600 μl min^1 throughout the sample analysis.
The mass spectrometer was operated in profile mode at a resolution of 17500, 5 microscans, using 50 msec max injection time and an AGC target of 1e6, and a full mass range from 800-1850 m/z was recorded. The HCD trapping gas was optimized for maximum sensitivity for intact proteins. The ionization method was electrospray ionization, which used a spray voltage of 4 kV, sheath gas flow set to 50 au, auxiliary gas flow set to 10 au and sweep gas flow set to 1 au. […]

[1] = binding activity determined at 2 hours
[2] = binding activity determined at 4 hours
[3] = binding activity determined at 6 hours

Compound	Binding % [1]	Binding % [2]	Binding % [3]	also measured
C=CC(=O)N1CC(n2cnc3c(F)c(-c4cc(O)ccc4Cl)c(Cl)cc3c2=O)C1 [Compound 6, 3-(1-acryloylazetidin-3-yl)-6-chloro-7-(2-chloro-5-hydroxyphenyl)-8-fluoroquinazolin-4(3H)-one]	++; (++ indicates binding activity from 5% up to 50%)	+++^† (+++ indicates binding activity 50% or greater)		
C=CC(=O)N1CCCC(n2cnc3c(F)c(-c4c(O)cccc4F)c(Cl)cc3c2=O)C1 (stereo not shown) [Compound 1, 3-(1-acryloylpiperidin-3-yl)-6-chloro-8-fluoro-7-(2-fluoro-6-hydroxyphenyl)quinazolin-4(3H)-one]		++^† (++ indicates binding activity from 5% up to 50%)		
C=CC(=O)N1CC(n2cnc3c(F)c(-c4c(C)ccc5cn[nH]c45)c(Cl)cc3c2=O)C1 [Compound 8, 3-(1-acryloylazetidin-3-yl)-6-chloro-8-fluoro-7-(6-methyl-1H-indazol-7-yl)quinazolin-4(3H)-one]			++^‡ (++ indicates binding activity from 5% up to 50%)	
C=CC(=O)N1CC(n2cnc3c(Cl)c(-c4cc(O)cc5ccccc45)cc(O)c3c2=O)C1 [Compound 14, 3-(1-acryloylazetidin-3-yl)-8-chloro-5-hydroxy-7-(3-hydroxynaphthalen-1-yl)quinazolin-4(3H)-one]	+++ (+++ indicates binding activity 50% or greater)			
C=CC(=O)NC1CC(n2cnc3c(F)c(-c4c(O)cccc4F)c(Cl)cc3c2=O)C1 (stereo not shown) [Compound 2, N-(3-(6-chloro-8-fluoro-7-(2-fluoro-6-hydroxyphenyl)-4-oxoquinazolin-3(4H)-yl)cyclobutyl)acrylamide]		++^† (++ indicates binding activity from 5% up to 50%)		covalently bind to KRAS G12C, extent (% of protein in the well covalently bound to test compound) (time and concentration not given): greater than 30%
C=CC(=O)N1CC(n2cnc3cc(-c4c(O)cccc4F)ccc3c2=O)C1 [Compound 5, 3-(1-acryloylazetidin-3-yl)-7-(2-fluoro-6-hydroxyphenyl) quinazolin-4(3H)-one]			++^‡ (++ indicates binding activity from 5% up to 50%)	
C=CC(=O)Nc1cnc2c(F)c(-c3c(O)cccc3F)c(Cl)cc2c1N1CCN(C(C)=O)CC1 [Compound 3, N-(4-(4-acetylpiperazin-1-yl)-6-chloro-8-fluoro-7-(2-fluoro-6-hydroxyphenyl)quinolin-3-yl)acrylamide]		++^† (++ indicates binding activity from 5% up to 50%)		
C=CC(=O)N1CC(n2cnc3c(Cl)c(-c4cc(O)cc5ccccc45)c(N)cc3c2=O)C1 [Compound 12, 3-(1-acryloylazetidin-3-yl)-6-amino-8-chloro-7-(3-hydroxynaphthalen-1-yl)quinazolin-4(3H)-one]	++ (++ indicates binding activity from 5% up to 50%)			
C=CC(=O)N1CC(n2cnc3c(F)c(-c4cc(O)cc5ccccc45)c(Cl)cc3c2=O)C1 [Compound 7, 3-(1-acryloylazetidin-3-yl)-6-chloro-8-fluoro-7-(3-hydroxynaphthalen-1-yl)quinazolin-4(3H)-one]	+++; (+++ indicates binding activity 50% or greater)		+++^‡ (+++ indicates binding activity 50% or greater)	
C=CC(=O)N1CC(n2cnc3c(F)c(-c4c(O)cccc4F)c(Cl)cc3c2=O)C1 [Compound 4, 3-(1-acryloylazetidin-3-yl)-6-chloro-8-fluoro-7-(2-fluoro-6-hydroxyphenyl)quinazolin-4(3H)-one]		++^† (++ indicates binding activity from 5% up to 50%)		
C=CC(=O)N1CC(n2cnc3c(Cl)c(-c4cc(O)cc5ccccc45)c(F)cc3c2=O)C1 [Compound 10, 3-(1-acryloylazetidin-3-yl)-8-chloro-6-fluoro-7-(3-hydroxynaphthalen-1-yl)quinazolin-4(3H)-one]	+++; (+++ indicates binding activity 50% or greater)		+++^‡ (+++ indicates binding activity 50% or greater)	
C=CC(=O)N1CC(n2cnc3c(F)cc(-c4ccccc4O)cc3c2=O)C1 [Compound 9, 3-(1-acryloylazetidin-3-yl)-8-fluoro-6-(2-hydroxyphenyl) quinazolin-4(3H)-one]			+^‡ (+ indicates binding activity up to 5%)	
